Measured values taken from patent US6784309B2, “Method for the purification of N-[N-(3,3-dimethylbutyl)-L-α-aspartyl]-L-phenylalanine 1-methyl ester” (The Nutrasweet Company, priority 1999, dated 2004).

Legend:
[1] = relative to sucrose; cited from earlier work
[2] = solubility compared to neotame; type: physicochemical; conditions: relative to neotame; for solubility compared to neotame: crystallization context

For `COC(=O)C(Cc1ccccc1)NC(=O)C(CC(=O)O)NCCC(C)(C)C` [neotame, N-[N-(3,3-dimethylbutyl)-L-α-aspartyl]-L-phenylalanine 1-methyl ester], the “sweetness potency (sweeter than sucrose)” value [1] is given as “about 8000 X”.
In the case of `CC(C)(C)CCN[C@@H](CC(=O)O)C(=O)N[C@@H](Cc1ccccc1)C(=O)O` [demethylated α-neotame, N-[N-(3,3-dimethylbutyl)-L-α-aspartyl]-L-phenylalanine], the “solubility in water compared to neotame” value ([2]; water) is reported as “more soluble in water”.
For `COC(=O)[C@H](Cc1ccccc1)NC(=O)[C@H](CC(=O)O)N(CCC(C)(C)C)CCC(C)(C)C` [dialkylated aspartame, N,N-di(3,3-dimethylbutyl)-L-aspartyl-L-phenylalanine methyl ester], the “solubility compared to neotame” value [2] was “very similar solubilities”.
In the case of `COC(=O)C[C@H](NCCC(C)(C)C)C(=O)NC(Cc1ccccc1)C(=O)OC` (stereo partly drawn) [methyl ester of α-neotame, methyl ester of N-[N-(3,3-dimethylbutyl)-L-α-aspartyl]-L-phenylalanine 1-methyl ester], the “solubility compared to neotame” value [2] is reported as “very similar solubilities”.
With `COC(=O)[C@H](Cc1ccccc1)N1C(=O)C(CC(=O)O)N(CCC(C)(C)C)C1CC(C)(C)C` (stereo partly drawn) [dialkylated imidazolidinone, α-methyl hydrogen-3-(3,3-dimethylbutyl)-2-L-(2,2-dimethylpropyl)-5-oxo-α-L-(phenylmethyl)-1,4(L)-imidazolidine diacetate] the “solubility compared to neotame” value [2] was “very similar solubilities”.
